Laboratory results as given in EP0022408A1, “Derivatives of alpha-phenyl-2-pyrrolidine methanol and their salts, process for their preparation, use as medicines and compositions containing them” (ROUSSEL-UCLAF, priority 1979, dated 1981).
Counter-ions that a name gives are not always drawn.

Key:
trachée isolée de cobaye = test: Action on isolated guinea pig trachea (carbachol-induced contractions); assay type: cell-based; conditions: Cavia porcellus; product at 3.10^-6M; carbachol 0,4µ/ml; Krebs Henseleit solution, 37°C; read-out: antagonise les contractions provoquées par le carbachol
Description: 1) Action sur la trachée isolée de cobaye
On prélève les trachées de cobaye que l'on vient de sacrifier par un coup sur la nuque, les trachées sont découpées en spirale et suspendues dans une solution de Krebs Henseleit, à la température de 37°C dans laquelle barbote un mélange de 95 % d'oxygène et 5 % de gaz carbonique.
On ajoute dans la solution du carbachol comme agoniste pour provoquer des contractions.
Le produit de l'exemple 1 à la concentration de 3.10^-6M, antagonise de 100 % les contractions provoquées par le carbachol à la concentration de 0,4µ/ml.

[1] = tested on: bronchospasme provoqué par l'histamine; test: Action on histamine-induced bronchospasm in the guinea pig (Konzett and Rossler method); assay type: in vivo, cobaye; conditions: 1µg/kg i.v. one minute before histamine (2 à 10µg/kg i.v.)
Description: -2) Action sur le bronchospasme provoqué par l'histamine chez le cobaye
Suivant la méthode de Konzett et Rossler Arch. exp. Path. Pharmakol. 195 71 (1940), de l'histamine est administrée à une dose variant de 2 à 10µg/kg i.v. selon la sensibilité de l'animal.
L'enregistrement de la pression produite par l'air expulsé est effectué à l'aide d'un microdynamomètre Apelab.
Le produit à tester est injecté en solution dans le sérum physiologique par voie i.v. une minute avant l'histamine.
On enregistre un éventuel effet du produit seul et son action antagoniste vis-à-vis de l'agent constricteur.
L'activité antagoniste est exprimée en pourcentage de protection par rapport au bronchospasme initial dû à l'histamine.

[2] = tested on: pression artérielle carotidienne; test: Hypotensive activity in anaesthetised rats (carotid arterial pressure); assay type: in vivo, rats mâles de souche Sprague Dawley S.P.F.; conditions: rats anaesthetised with nembutal
Description: 3) Déterminiation de l'activité hypotensive
L'activité hypotensive a été étudiée sur des rats mâles de souche Sprague Dawley S.P.F. pesant 300 g environ et anesthésiés au nembutal (50 mg/kg par voie intraveineuse).
Le produit testé a été administré par voie intraveineuse dans la veine jugulaire.
La pression artérielle carotidienne a été mesurée avant et après administration du produit testé.
Le tableau ci-après indique les variations exprimées en pourcentage de la pression artérielle, après administration du produit testé par rapport à la pression artérielle initiale ainsi que le temps pendant lequel se manifestent ces variations.

souris = test: Acute toxicity, intraperitoneal, mouse; assay type: in vivo; conditions: mortality recorded 48 hours after administration
Text: 5) Etude de la toxicité aigüe
On évalue les doses létales 50 (DL 50) des produits après administration par voie intrapéritonéale chez la souris.
La mortalité est relevée quarante-huit heures après l'administration des produits.

[3] = tested on: Hypothermie à la réserpine; test: Antidepressant activity: reserpine hypothermia; assay type: in vivo, souris mâles; conditions: 10 mg/kg I.P; reserpine 4 mg/kg intraperitoneal; rectal temperature measured for 5 hours
Description: (§1) 6) Détermination de l'activité antidénpressive
a) Hypothermie à la réserpine
Le test est effectué sur un lot de 10 souris mâles auxquelles on administre par voie intrapéritonéale 4 mg/kg de réserpine.
La température rectale des animaux est mesurée pendant 5 heures à l'aide d'un thermomètre électrique.

[4] = tested on: Hypothermie à l'apomorphine; test: Antidepressant activity: apomorphine hypothermia; assay type: in vivo, souris mâles; conditions: Mus musculus, ip; intraperitoneal, before apomorphine hydrochloride 16 mg/kg intraperitoneal; rectal temperature; read-out: DE 50 (dose qui réduit de 50 % l'écart de température observé entre les témoins)
Description: as §1
b) Hypothermie à l'apomorphine
Le test est effectué sur un lot de 10 souris mâles.
On induit chez les animaux une hypothermie par injection intrapéritonéale de 16 mg/kg de chlorhydrate d'apomorphine. Le composé testé est administré par voie intrapéritonéale 30 mm avant l'injection d'apomorphine; la température rectale des animaux est mesurée 30 mm après l'injection d'apomorphine.
Des animaux témoins reçoivent soit du soluté physiologique, soit de l'apomorphine; on mesure l'écart de température entre les témoins ayant reçu le soluté physiologique, les témoins ayant reçu l'apomorphine seule et les animaux ayant reçu l'apomorphine et le composé testé.
On appelle DE 50 la dose de composé qui réduit de 50 % l'écart de température observé entre les témoins, […]

| SMILES | inhibition at 3 µM (trachée isolée de cobaye) [%] | inhibition de la broncho constriction à l'histamine (pourcentage de protection par rapport au bronchospasme initial) ([1]; listed as exemple 1) [%] | Variations % de la pression artérielle ([2]; 1 mg/kg intravenous (jugular vein), relative to initial pressure) [%] | Durée d'action ([2]; 1 mg/kg intravenous) [min] | dose létale 50 (DL 50) (souris; listed as exemple 1, 2880 min) [mg/kg] | apparition de l'hypothermie provoquée par la réserpine [3] | ED50 [4] [mg/kg] | inhibition de la broncho constriction à l'histamine (pourcentage de protection par rapport au bronchospasme initial) ([1]; listed as exemple 3) [%] | dose létale 50 (DL 50) (souris; listed as exemple 3, 2880 min) [mg/kg] |
| --- | --- | --- | --- | --- | --- | --- | --- | --- | --- |
| Oc1ccc(C(O)C2CCCN2)cc1O (single isomer, unassigned) [Exemple 1, Oxalate acidede 4-[α-hydroxy(pyrrolidin-2-yl)méthyl]1,2-benzène diol (isomère A)] | 100 | 52 | -35 | >65 | 250 | retarde l'apparition de l'hypothermie provoquée par la réserpine | 25 |  |  |
| Oc1ccc(C(O)C2CCCN2)cc1O (single isomer, unassigned) [Exemple 3, Chlorhydrate du 4-/α-hydroxy(pyrrolidin-2-yl) méthyl/1,2-benzène diol (isomère B)] |  |  |  |  |  |  |  | 17 | 40 |
